From PubChem BioAssay (NCI)
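The compound was tested at five concentrations on cells cultured in 96-well plates, with a 48-hour exposure period. At the GI50, growth is halved. TGI: concentration producing complete growth inhibition.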

Key:
Test in all cases: DTP human tumour cell line panel, 48 h
[1] = tested on: NCI-H226 lung
[2] = tested on: NCI-H522 lung
[3] = tested on: HS 578T breast
[4] = tested on: HCC-2998 colon
[5] = tested on: HCT-15 colon
[6] = tested on: UO-31 renal
[7] = tested on: K-562 leukemia
[8] = tested on: RPMI-8226 leukemia
[9] = tested on: COLO 205 colon
[10] = tested on: NCI/ADR-RES ovarian
[11] = tested on: PC-3 prostate
[12] = tested on: MCF7 breast
[13] = tested on: OVCAR-8 ovarian
[14] = tested on: A498 renal
[15] = tested on: SW-620 colon
[16] = tested on: SK-OV-3 ovarian
[17] = tested on: DU-145 prostate
[18] = tested on: U251 CNS
[19] = tested on: OVCAR-3 ovarian
[20] = tested on: M14 melanoma
[21] = tested on: HOP-92 NSCLC
[22] = tested on: MOLT-4 leukemia
[23] = tested on: IGROV1 ovarian
[24] = tested on: SK-MEL-2 melanoma
[25] = tested on: A549 NSCLC
[26] = tested on: OVCAR-5 ovarian
[27] = tested on: SK-MEL-5 melanoma
[28] = tested on: SR leukemia
[29] = tested on: MDA-MB-435
[30] = tested on: HOP-62 NSCLC
[31] = tested on: HT29 colon
[32] = tested on: UACC-62 melanoma
[33] = tested on: EKVX NSCLC
[34] = tested on: UACC-257 melanoma
[35] = tested on: HL-60(TB) leukemia
[36] = tested on: SF-268 CNS
[37] = tested on: SN12C renal
[38] = tested on: MALME-3M melanoma
[39] = tested on: T-47D breast
[40] = tested on: NCI-H460 lung
[41] = tested on: NCI-H23 lung
[42] = tested on: RXF 393 renal
[43] = tested on: BT-549 breast
[44] = tested on: CCRF-CEM leukemia
[45] = tested on: SNB-19 CNS
[46] = tested on: ACHN renal
[47] = tested on: CAKI-1 renal
[48] = tested on: SF-539 CNS
[49] = tested on: 786-0 renal
[50] = tested on: MDA-MB-231 breast
[51] = tested on: KM12 colon
[52] = tested on: HCT-116 colon
[53] = tested on: SF-295 CNS
[54] = tested on: LOX IMVI melanoma
[55] = tested on: TK-10 renal
[56] = tested on: SK-MEL-28 melanoma
[57] = tested on: SNB-75 CNS
[58] = tested on: OVCAR-4 ovarian

In the case of `O=C(c1ccco1)c1c(C(F)(F)F)n([O-])c2cc(F)c(F)cc2[n+]1=O`, the GI50 [1] is reported as 0.926 µM, the TGI [1] is reported as 2.35 µM and the GI50 [2] is reported as 1.88 µM. It also gave a TGI [2] of 5.47 µM, a GI50 [3] of 0.655 µM and a TGI [3] of 2630 nM. The TGI [4] was 14.5 nM, the GI50 [5] was < 0.0464 µM and the TGI [5] was 149 nM. For the same molecule, the GI50 [6] was 0.546 µM, the TGI [6] was 1030 nM and the GI50 [7] was 79 nM. For the same molecule, the TGI [7] was 8.34 µM, the TGI [8] was 0.341 µM and the GI50 [9] was 0.229 µM. It also gave a TGI [9] of 3.06 µM, a GI50 [10] of 0.0648 µM and a TGI [10] of 179 nM. The GI50 [11] was 0.147 µM, the TGI [11] was 435 nM and the GI50 [12] was 0.108 µM. It also gave a TGI [12] of 2620 nM, a GI50 [13] of 0.412 µM and a TGI [13] of 1330 nM. For the same molecule, the GI50 [14] was 4.88 µM, the TGI [14] was 17.3 µM and the TGI [15] was 13.2 nM. It also gave a GI50 [16] of 346 nM, a TGI [16] of 1110 nM and a GI50 [17] of 0.238 µM. For the same molecule, the TGI [17] was 727 nM, the GI50 [18] was 0.153 µM and the TGI [18] was 291 nM. It also gave a GI50 [19] of 0.193 µM, a TGI [19] of 1350 nM and a GI50 [20] of 225 nM. For the same molecule, the TGI [20] was 528 nM, the GI50 [21] was 1.49 µM and the TGI [21] was 3.21 µM. For the same molecule, the GI50 [22] was 0.0867 µM, the TGI [22] was 411 nM and the GI50 [23] was 1.07 µM. For the same molecule, the TGI [23] was 3.31 µM, the GI50 [24] was 2.93 µM and the TGI [24] was 12.8 µM. For the same molecule, the GI50 [25] was 1.32 µM, the TGI [25] was 3.12 µM and the GI50 [26] was 0.67 µM. For the same molecule, the TGI [26] was 2380 nM, the GI50 [27] was 0.256 µM and the TGI [27] was 1230 nM. It also gave a GI50 [28] of 0.0237 µM, a TGI [28] of 390 nM and a GI50 [29] of 0.553 µM. For the same molecule, the TGI [29] was 3.45 µM, the GI50 [30] was 0.348 µM and the TGI [30] was 850 nM. The GI50 [31] was 0.609 µM, the TGI [31] was > 100 µM and the GI50 [32] was 0.242 µM. The TGI [32] was 0.76 µM, the GI50 [33] was 570 nM and the TGI [33] was 1260 nM. For the same molecule, the GI50 [34] was 1.29 µM, the TGI [34] was 3.01 µM and the GI50 [35] was 0.4 µM. It also gave a TGI [35] of 2.74 µM, a GI50 [36] of 0.29 µM and a TGI [36] of 1090 nM. The GI50 [37] was 0.307 µM, the TGI [37] was 1010 nM and the GI50 [38] was 2060 nM. The TGI [38] was 4.21 µM, the GI50 [39] was 0.782 µM and the TGI [39] was 22.7 µM. It also gave a GI50 [40] of 0.252 µM, a TGI [40] of 5.78 µM and a GI50 [41] of 497 nM. It also gave a TGI [41] of 1860 nM, a GI50 [42] of 0.193 µM and a TGI [42] of 531 nM. The GI50 [43] was 0.163 µM, the TGI [43] was 0.389 µM and the TGI [44] was > 23 µM. The GI50 [45] was 1.02 µM, the TGI [45] was 2350 nM and the GI50 [46] was 0.122 µM. For the same molecule, the TGI [46] was 256 nM, the GI50 [47] was 0.44 µM and the TGI [47] was 1370 nM. For the same molecule, the GI50 [48] was 0.329 µM, the TGI [48] was 0.679 µM and the GI50 [49] was 0.0512 µM. The TGI [49] was 137 nM, the GI50 [50] was 0.14 µM and the TGI [50] was 313 nM. For the same molecule, the GI50 [51] was 0.7 µM, the TGI [51] was 2000 nM and the GI50 [52] was 0.149 µM. It also gave a TGI [52] of 386 nM, a GI50 [53] of 0.737 µM and a TGI [53] of 2170 nM. For the same molecule, the TGI [54] was 459 nM, the GI50 [55] was 0.204 µM and the TGI [55] was 1020 nM. The GI50 [56] was 0.416 µM and the TGI [56] was 2580 nM.
Molecule `C[C@H]1CN(C2COC2)CCN1c1ccc(Nc2cc(-c3ccnc(N4CCn5c(cc6c5CC(C)(C)C6)C4=O)c3CO)cn(C)c2=O)nc1` has a GI50 [1] of 19.6 µM, a TGI [1] of 46.5 µM and a GI50 [2] of 56.3 µM. For the same molecule, the TGI [2] was > 100 µM, the GI50 [3] was 27.7 µM and the TGI [3] was > 100000 nM. The GI50 [4] was 49.9 µM, the TGI [4] was > 100000 nM and the GI50 [5] was 47 µM. The TGI [5] was > 100000 nM, the GI50 [6] was 21.7 µM and the TGI [6] was > 100000 nM. For the same molecule, the GI50 [8] was 13.1 µM, the TGI [8] was 60.7 µM and the GI50 [57] was 15.5 µM. For the same molecule, the TGI [57] was > 100 µM, the GI50 [9] was 27.1 µM and the TGI [9] was > 100 µM. The GI50 [10] was 47.8 µM, the TGI [10] was > 100000 nM and the GI50 [11] was 36.6 µM. For the same molecule, the TGI [11] was > 100000 nM, the GI50 [12] was 28.7 µM and the TGI [12] was > 100000 nM. The GI50 [13] was 54.3 µM, the TGI [13] was > 100000 nM and the GI50 [14] was 10.3 µM. For the same molecule, the TGI [14] was 33.9 µM, the GI50 [15] was 47.8 µM and the TGI [15] was > 100000 nM. The GI50 [16] was > 100000 nM, the TGI [16] was > 100000 nM and the GI50 [17] was 45.9 µM. For the same molecule, the TGI [17] was > 100000 nM, the GI50 [18] was 44.8 µM and the TGI [18] was > 100000 nM. For the same molecule, the GI50 [19] was 37.4 µM, the TGI [19] was > 100000 nM and the GI50 [21] was 12.6 µM. For the same molecule, the TGI [21] was 64.6 µM, the GI50 [22] was 14.3 µM and the TGI [22] was > 100000 nM. The GI50 [23] was 19.7 µM, the TGI [23] was > 100 µM and the GI50 [24] was 74.2 µM. For the same molecule, the TGI [24] was > 100 µM, the GI50 [25] was 56.8 µM and the TGI [25] was > 100 µM. For the same molecule, the GI50 [26] was 73 µM, the TGI [26] was > 100000 nM and the GI50 [27] was 31.2 µM. For the same molecule, the TGI [27] was > 100000 nM, the GI50 [28] was 23.1 µM and the TGI [28] was > 100000 nM. For the same molecule, the GI50 [29] was 26.4 µM, the TGI [29] was > 100 µM and the GI50 [30] was 39.1 µM. The TGI [30] was > 100000 nM, the GI50 [31] was 23.8 µM and the TGI [31] was > 100 µM. For the same molecule, the GI50 [32] was 23.2 µM, the TGI [32] was 82.3 µM and the GI50 [33] was > 100000 nM. The TGI [33] was > 100000 nM, the GI50 [34] was 27.6 µM and the TGI [34] was 58.1 µM. For the same molecule, the GI50 [35] was 16.6 µM, the TGI [35] was 47.2 µM and the GI50 [36] was 29.5 µM. The TGI [36] was > 100000 nM, the GI50 [37] was 49.9 µM and the TGI [37] was > 100000 nM. For the same molecule, the GI50 [38] was > 100000 nM, the TGI [38] was > 100 µM and the GI50 [39] was 19.2 µM. For the same molecule, the TGI [39] was > 100 µM, the GI50 [40] was 61.1 µM and the TGI [40] was > 100 µM. For the same molecule, the GI50 [41] was > 100000 nM, the TGI [41] was > 100000 nM and the GI50 [42] was 40.6 µM. The TGI [42] was > 100000 nM, the GI50 [43] was 17.7 µM and the TGI [43] was 55.1 µM. For the same molecule, the GI50 [44] was 21.4 µM, the TGI [44] was > 100 µM and the GI50 [45] was 51.2 µM. For the same molecule, the TGI [45] was > 100000 nM, the GI50 [46] was 30.2 µM and the TGI [46] was > 100000 nM. The GI50 [47] was 27.9 µM, the TGI [47] was > 100000 nM and the GI50 [48] was 21.4 µM. For the same molecule, the TGI [48] was 66.9 µM, the GI50 [49] was 19.5 µM and the TGI [49] was > 100000 nM. The GI50 [50] was 26.1 µM, the TGI [50] was > 100000 nM and the GI50 [51] was 56.8 µM. The TGI [51] was > 100000 nM, the GI50 [52] was 38.4 µM and the TGI [52] was > 100000 nM. For the same molecule, the GI50 [53] was 68.6 µM, the TGI [53] was > 100000 nM and the GI50 [58] was 22.4 µM. The TGI [58] was > 100 µM, the GI50 [54] was 29.8 µM and the TGI [54] was > 100000 nM. The GI50 [55] was 38.7 µM, the TGI [55] was > 100000 nM and the GI50 [56] was 39.8 µM. For the same molecule, the TGI [56] was > 100000 nM.
